Measured values taken from patent US20140057887A1, “NOVEL PLATINUM-CARBENE COMPLEXES AND USE THEREOF AS MEDICAMENTS” (priority 2010, published 2014).

How the values were obtained:
EPC [1] = assay: Cytotoxicity in vitro, IC50 on EPC (endothelial progenitor cells); assay type: cell-based
Procedure: (§1) (5% CO2). […] All the treatments are carried out in triplicate.
(§2) EPC: endothelial progenitor cells
(§3) The endothelial progenitor cells (EPC) play an important role in angiogenesis and vasculogenesis; these last-mentioned contribute to tumour growth, are mobilized by cytokines secreted at cancer sites and contribute to postnatal vasculogenesis and to pathological neovascularization.
(§4) The cytotoxicity of a compound against a cancer cell line is evaluated.

HCT116 [2] = assay: Cytotoxicity in vitro, IC50 on HCT116; assay type: cell-based, human; details: measured by first dissolving cisplatin in water
Procedure: as §1, §4

SK-OV3 [3] = assay: Cytotoxicity in vitro, IC50 on SK-OV3; assay type: cell-based; details: ovarian adenocarcinoma
Procedure: as §1
(§5) SK-OV-3 and OVCAR8: ovarian adenocarcinomas
as §4

MCF7 [4] = assay: Cytotoxicity in vitro, IC50 on MCF7; assay type: cell-based; details: breast carcinoma
Procedure: as §1, §4

Hela = assay: MTS cytotoxicity assay, IC50 on Hela cell line; details: read-out: IC50 {Hela} (in μM); MTS assay, 48 h incubation
Procedure: (§7) MTS [3-(4,5-dimethylthiazol-2-yl)-5-(3-carboxymethoxyphenyl)-2-(4-sulphophenyl)-2H-tetrazolium] is reduced to formazan (coloured compound, the optical density of which is measured at 492 nm) by the mitochondrial dehydrogenases. Only the live cells will reduce MTS to formazan, which will be released in the medium. The optical density measured at 492 nm is directly proportional to the number of live cells.
(§8) MTS [3-(4,5-dimethylthiazol-2-yl)-5-(3-carboxymethoxyphenyl)-2-(4-sulphophenyl)-2H-tetrazolium], soluble in the culture medium, can be reduced to formazan (coloured product) by the mitochondrial dehydrogenases of the live cells. The measured optical density (492 nm) is therefore directly proportional to the quantity of live cells. The cells are deposited in a 96-well plate at 1.10^4 cells per well in 100 μL of RPMI 5% FCS. The cells are then treated with the various molecules at the desired concentrations and then incubated for 48 h at 37° C. (5% CO2). After treatment, 20 μL of MTS is added to each well. After incubation for two hours at 37° C. the optical density is measured at an absorbance of 492 nm using the plate reader Wallac Victor 2 Multi-label Counter (Technical University of Denmark, Kongens Lyngby, Denmark). All the treatments are carried out in triplicate. The blank, determined by incubating RPMI with MTS, is deducted from the values of the wells containing cells. The percentage of live cells is calculated from the following formula: (OD experiment*100)/OD control.
(§9) The cytotoxicity of the compounds according to the invention is measured in vitro on the Hela and U87 cell lines.
(§10) The cytotoxicity of a compound with respect to a cancer cell line is evaluated from the value of the inhibitory concentration IC50 of said compound with respect to said cell line.
(§11) The MTS assay gives an optical density signal that is proportional to the quantity of live cells (in a linear range). These values, as well as the untreated controls, are used for calculating the percentage of live cells at each concentration. […] The IC50 values are calculated on the basis of 4-parameter fitting using the Sigma Plot software.

PC3 [5] = assay: Cytotoxicity in vitro, IC50 on PC3; assay type: cell-based
Procedure: as §1
(§6) PC3: prostatic adenocarcinoma
as §4

U87 = assay: MTS cytotoxicity assay, IC50 on U87 cell line; details: read-out: IC50 {U87} (in μM); MTS assay, 48 h incubation
Procedure: as §7, §8, §9
U87: stage IV glioblastoma, expresses αVβ5 and can be used as a xenograft
as §10, §11

SK-OV3 [6] = assay: Percentage of cellular inhibition at 10 μM, SK-OV3; assay type: cell-based; details: for Inhibition (in %) {SK-OV3}: final concentration 10 μM, ovarian adenocarcinoma
Procedure: as §1, §5

Vero = assay: Percentage of cellular inhibition at 10 μM, Vero; assay type: cell-based, monkey; details: for Inhibition (in %) {Vero}: final concentration 10 μM, monkey kidney epithelial cells (non-cancerous)
Procedure: as §1
Vero: monkey kidney epithelial cells

OVCAR8 [7] = assay: Cytotoxicity in vitro, IC50 on OVCAR8; assay type: cell-based; details: ovarian adenocarcinoma
Procedure: as §1, §5, §4

MCF7 [8] = assay: Percentage of cellular inhibition at 10 μM, MCF7; assay type: cell-based; details: final concentration 10 μM; breast carcinoma
Procedure: as §1

OVCAR8 [9] = assay: Percentage of cellular inhibition at 10 μM, OVCAR8; assay type: cell-based; details: for Inhibition (in %) {OVCAR8}: final concentration 10 μM, ovarian adenocarcinoma
Procedure: as §1, §5

EPC [10] = assay: Percentage of cellular inhibition at 10 μM, EPC; details: for Inhibition (in %) {EPC}: final concentration 10 μM, endothelial progenitor cells
Procedure: as §1, §3, §2

KB = assay: Percentage of cellular inhibition at 10 μM, KB; assay type: cell-based; details: final concentration 10 μM; buccal carcinoma
Procedure: as §1

MRC5 = assay: Percentage of cellular inhibition at 10 μM, MRC5; assay type: cell-based, human; details: for Inhibition (in %) {MRC5}: final concentration 10 μM, human fetal lung cells (non-cancerous)
Procedure: as §1
MRCS: human fetal lung cells

HL60 = assay: Percentage of cellular inhibition at 10 μM, HL60; assay type: cell-based; details: final concentration 10 μM; leukaemia
Procedure: as §1

HCT116 [11] = assay: Percentage of cellular inhibition at 10 μM, HCT116; assay type: cell-based, human; details: final concentration 10 μM; colon carcinoma
Procedure: as §1

PC3 [12] = assay: Percentage of cellular inhibition at 10 μM, PC3; assay type: cell-based; details: final concentration 10 μM; prostatic adenocarcinoma
Procedure: as §1, §6

[13] = test system: cell lines KB, SK-OV3, OVCAR-8, HL60, MCF7, HCT116, PC3, MRCS, Vero and EPC; assay: Cellular inhibition, overall statements on the panel of cell lines; assay type: cell-based; details: 10 μM, panel of cancer and non-cancerous cell lines
Source text: The results obtained are presented below.

SMILES | IC50 (EPC [1]) [µM] | IC50 (SK-OV3 [3]) [µM] | IC50 (MCF7 [4]) [µM] | Inhibition (in %) {SK-OV3} (SK-OV3 [6]) [%] | Inhibition (in %) {Vero} (Vero) [%] | IC50 (OVCAR8 [7]) [µM] | Inhibition (in %) {MCF7} (MCF7 [8]) [%] | Inhibition (in %) {OVCAR8} (OVCAR8 [9]) [%] | Inhibition (in %) {EPC} (EPC [10]) [%] | Inhibition (in %) {KB} (KB) [%] | Inhibition (in %) {MRC5} (MRC5) [%] | Inhibition (in %) {HL60} (HL60) [%] | Inhibition (in %) {HCT116} (HCT116 [11]) [%] | Inhibition (in %) {PC3} (PC3 [12]) [%] | anti-angiogenic activity by inhibition of growth of EPC cells (in words) (EPC [10]; 10 μM) | inhibition of cell growth, overall statement on the cell panel (in words) [13] | other results
N.N.[Cl][Pt][Cl] [Cisplatin, cisplatin, reference compound] | > 10 | > 10 | > 10 | 4.4 | −4.0 | > 10 | −4.1 | −1.8 | −1.2 | 3.6 | −20.4 | −10.6 | 2.7 | −6.2 | – | – | IC50 (HCT116 [2]): 5.5 µM; IC50 (Hela): 26.2 µM; IC50 (PC3 [5]; measured by first dissolving cisplatin in water): 5.1 µM; IC50 (U87): 8 µM
COCCOCCOCCOCCn1ccn(C)[c]1=[Pt]([I])[I].NC1CCCCC1 [Example 13, trans-diiodo(N-cyclohexylamine)[1-methyl-3-(2,5,8,11-tetraoxatridecan-13-yl)-imidazol-2-ylidene]platinum(II)] | – | – | – | 90.9 | – | – | 94.2 | 92.4 | 96.1 | 100.4 | – | 87.3 | 94.0 | 83.8 | anti-angiogenic activity | improves the activity of inhibition of cell growth | –
COCCOCCOCCOCCn1ccn(CCOCCOCCOCCOC)[c]1=[Pt]([I])[I].NC1CCCCC1 [Example 14, trans-diiodo(N-cyclohexylamine)[1,3-di(2,5,8,11-tetraoxatridecan-13-yl)-imidazol-2-ylidene]platinum(II)] | – | 6.2 | – | 62.8 | 17.0 | 3.9 | 18.6 | 78.4 | 27.2 | 26.6 | 24.5 | 31.2 | 31.9 | 5.7 | – | selective inhibitor of the growth of cancer cells | selectivity of inhibition of cell growth, SKOV-3 (in words) (SK-OV3 [6]; 10 μM): selective with respect to the ovarian cancer cells SKOV-3 and OVCAR8; cytotoxicity on non-cancerous cells Vero (in words) (Vero; 10 μM): low cytotoxicity; selectivity of inhibition of cell growth, OVCAR8 (in words) (OVCAR8 [9]; 10 μM): selective with respect to the ovarian cancer cells SKOV-3 and OVCAR8; cytotoxicity on non-cancerous cells EPC (in words) (EPC [10]; 10 μM): low cytotoxicity; cytotoxicity on non-cancerous cells MRCS (in words) (MRC5; 10 μM): low cytotoxicity
Cn1ccn(CCC[Si](C)(C)C)[c]1=[Pt]([I])[I].c1ccncc1 [Example 28, trans-diiodo(N-pyridine)[1-methyl-3-(3-(trimethylsilyl)propyl)-imidazol-2-ylidene]platinum(II)] | 0.6 | 0.2 | 0.2 | 100.4 | – | – | 99.2 | 98.0 | 100.3 | 99.8 | – | 99.6 | 99.4 | 91.5 | anti-angiogenic activity | – | IC50 (PC3 [5]; prostatic adenocarcinoma): 0.5 µM
